Active and inactive are the calls of the source. No cut-off for these calls is given here.
Legend:
Hs-578T [1] = test: Antiproliferative activity against human Hs-578T cells assessed as reduction in cell viability incubated for 48 hrs by MTT assay; format: functional, cell-based
Hs-578T [2] = test: Induction of heat shock response in human Hs-578T cells assessed as change in Hsp70 level at 5 uM incubated for 24 hrs by Western blot analysis; format: functional, cell-based
Hs-578T [3] = test: Induction of heat shock response in human Hs-578T cells assessed as change in Hsp40 level at 5 uM incubated for 24 hrs by Western blot analysis; format: functional, cell-based
4T1 [4] = test: Induction of heat shock response in mouse 4T1 cells assessed as change in Hsp70 level at 7.5 uM incubated for 24 hrs by Western blot analysis; format: functional, cell-based
EO771 [5] = test: Inhibition of HSP90 in mouse EO771 cells assessed as change in ILK level at 7.5 uM incubated for 24 hrs by Western blot analysis; format: cell-based
EO771 [6] = test: Antiproliferative activity against mouse E0771 cells implanted in C57BL/6 mouse assessed as inhibition of tumor volume at 10 mg/kg, ip administered every 48 hrs for 3 weeks; format: functional, organism-based
4T1 [7] = test: Inhibition of HSP90 in mouse 4T1 cells assessed as reduction in ILK level at 7.5 uM incubated for 24 hrs by Western blot analysis; format: cell-based
EO771 [8] = test: Inhibition of HSP90 in mouse EO771 cells assessed as change in CDK4 level at 7.5 uM incubated for 24 hrs by Western blot analysis; format: cell-based
E0771 [9] = test: In vivo inhibition of HSP90 in mouse E0771 cells implanted in C57BL/6 mouse assessed as change in p-Akt/Akt ratio at 10 mg/kg, ip administered every 48 hrs for 3 weeks by Western blot analysis; format: functional, organism-based
4T1 [10] = test: Inhibition of HSP90 in mouse 4T1 cells assessed as reduction in CDK4 level at 7.5 uM incubated for 24 hrs by Western blot analysis; format: cell-based
E0771 [11] = test: In vivo inhibition of HSP90 in mouse E0771 cells implanted in C57BL/6 mouse at 10 mg/kg, ip administered every 48 hrs for 3 weeks by Western blot analysis; format: functional, organism-based
EO771 [12] = test: Induction of heat shock response in mouse EO771 cells assessed as change in Hsp70 level at 7.5 uM incubated for 24 hrs by Western blot analysis; format: functional, cell-based
[13] = molecular target: Heat shock protein HSP90 (Homo sapiens) (UniProt P07900+P08238); test: Inhibition of HSP90 in human Hs-578T cells assessed as degradation of CDK4 at 5 uM incubated for 24 hrs by Western blot analysis; format: cell-based
E0771 [14] = test: In vivo inhibition of HSP90 in mouse E0771 cells implanted in C57BL/6 mouse assessed as change in CDK4 at 10 mg/kg, ip administered every 48 hrs for 3 weeks by Western blot analysis; format: functional, organism-based
E0771 [15] = test: In vivo inhibition of HSP90 in mouse E0771 cells implanted in C57BL/6 mouse assessed as change in ILK at 10 mg/kg, ip administered every 48 hrs for 3 weeks by Western blot analysis; format: functional, organism-based
Hs-578T [16] = test: Induction of heat shock response in human Hs-578T cells assessed as reduction in Hsp70 level at 1 uM incubated for 24 hrs by Western blot analysis; format: functional, cell-based
Hs-578T [17] = test: Induction of heat shock response in human Hs-578T cells assessed as reduction in Hsp40 level at 1 uM incubated for 24 hrs by Western blot analysis; format: functional, cell-based
E0771 [18] = test: In vivo induction of heat shock response in mouse E0771 cells implanted in C57BL/6 mouse assessed as increased Hsp40 level at 10 mg/kg, ip administered every 48 hrs for 3 weeks by Western blot analysis; format: functional, organism-based
E0771 [19] = test: In vivo induction of heat shock response in mouse E0771 cells implanted in C57BL/6 mouse assessed as increased Hsp70 level at 10 mg/kg, ip administered every 48 hrs for 3 weeks by Western blot analysis; format: functional, organism-based

CC[C@H](C)[C@H]1C(=O)O[C@H](C(C)C)C(=O)N(C)[C@@H](C)C(=O)O[C@H](C(C)C)C(=O)N(C)[C@@H]([C@@H](C)CC)C(=O)O[C@H](C(C)C)C(=O)N1C
IC50 (Hs-578T [1]): 16.2 µM

CC[C@H](C)[C@H]1C(=O)O[C@H](C(C)C)C(=O)N(C)[C@@H]([C@@H](C)CC)C(=O)O[C@H](C(C)C)C(=O)N(C)[C@@H]([C@@H](C)CC)C(=O)O[C@H](C(C)C)C(=O)N1C
Activity (Hs-578T [2]): inactive | Activity (Hs-578T [3]): inactive | Activity (4T1 [4]): inactive | inhibition (EO771 [5]): inactive | Activity (EO771 [6]): Active | inhibition (4T1 [7]): Active | inhibition (EO771 [8]): inactive | inhibition (E0771 [9]): Active | inhibition (4T1 [10]): Active | inhibition (E0771 [11]): inactive | IC50 (Hs-578T [1]): 7.39 µM | Activity (EO771 [12]): inactive | inhibition [13]: Active | inhibition (E0771 [14]): Active | inhibition (E0771 [15]): Active

C=CCNC1=C2C[C@@H](C)C[C@H](OC)[C@H](O)[C@@H](C)/C=C(\C)[C@H](OC(N)=O)[C@@H](OC)/C=C\C=C(/C)C(=O)NC(=CC1=O)C2=O
Activity (Hs-578T [16]): Active | Activity (Hs-578T [17]): Active

CC[C@H](C)[C@H]1C(=O)O[C@H](C(C)C)C(=O)N(C)[C@@H]([C@@H](C)CC)C(=O)O[C@H](C(C)C)C(=O)N(C)[C@@H]([C@@H](C)CC)C(=O)O[C@H](C)C(=O)N1C
IC50 (Hs-578T [1]): 13 µM

CC[C@H](C)[C@H]1C(=O)O[C@H](C(C)C)C(=O)N(C)[C@@H]([C@@H](C)CC)C(=O)O[C@H](C(C)C)C(=O)N(C)[C@@H]([C@@H](C)CC)C(=O)O[C@H](Cc2ccc(C)cc2)C(=O)N1C
IC50 (Hs-578T [1]): 8.34 µM

CC[C@H](C)[C@H]1C(=O)O[C@H](C(C)C)C(=O)N(C)[C@@H]([C@@H](C)CC)C(=O)O[C@H](C(C)C)C(=O)N(C)[C@@H]([C@@H](C)CC)C(=O)O[C@H](Cc2ccccc2)C(=O)N1C
Activity (Hs-578T [2]): inactive | Activity (Hs-578T [3]): inactive | Activity (4T1 [4]): inactive | Activity (E0771 [18]): Active | inhibition (EO771 [5]): inactive | Activity (EO771 [6]): Active | Activity (E0771 [19]): Active | inhibition (4T1 [7]): Active | inhibition (EO771 [8]): inactive | inhibition (E0771 [9]): Active | inhibition (4T1 [10]): Active | inhibition (E0771 [11]): inactive | IC50 (Hs-578T [1]): 4.36 µM | Activity (EO771 [12]): inactive | inhibition [13]: Active | inhibition (E0771 [14]): Active | inhibition (E0771 [15]): Active

CC[C@H](C)[C@H]1C(=O)O[C@H](C(C)C)C(=O)N(C)[C@@H](Cc2ccccc2)C(=O)O[C@H](C(C)C)C(=O)N(C)[C@@H]([C@@H](C)CC)C(=O)O[C@H](C(C)C)C(=O)N1C
Activity (Hs-578T [2]): inactive | Activity (Hs-578T [3]): inactive | IC50 (Hs-578T [1]): 8 µM | inhibition [13]: Active

CC[C@H](C)[C@H]1C(=O)O[C@H](C(C)C)C(=O)N(C)[C@@H]([C@@H](C)CC)C(=O)O[C@H](C(C)C)C(=O)N(C)[C@@H]([C@@H](C)CC)C(=O)OCC(=O)N1C
IC50 (Hs-578T [1]): 16 µM

CC[C@H](C)[C@H]1C(=O)O[C@H](C(C)C)C(=O)N(C)[C@@H]([C@@H](C)CC)C(=O)O[C@H](C(C)C)C(=O)N(C)[C@@H]([C@@H](C)CC)C(=O)O[C@H](CCc2ccccc2)C(=O)N1C
IC50 (Hs-578T [1]): 8.1 µM

CC[C@H](C)[C@H]1C(=O)O[C@H](C(C)C)C(=O)N(C)[C@@H]([C@@H](C)CC)C(=O)O[C@H](C(C)C)C(=O)N(C)CC(=O)O[C@H](C(C)C)C(=O)N1C
IC50 (Hs-578T [1]): 16.7 µM

CC[C@H](C)[C@H]1C(=O)O[C@H](C(C)C)C(=O)N(C)[C@@H]([C@@H](C)CC)C(=O)O[C@H](C(C)C)C(=O)N(C)[C@@H]([C@@H](C)CC)C(=O)O[C@H](Cc2ccc3ccccc3c2)C(=O)N1C
IC50 (Hs-578T [1]): 8 µM

— ChEMBL document CHEMBL5390316, “Enniatin A Analogues as Novel Hsp90 Inhibitors that Modulate Triple-Negative Breast Cancer” (ACS Med Chem Lett, 2023)
